Results from patent US20240252677A1, “ONE-COMPONENT DELIVERY SYSTEM FOR NUCLEIC ACIDS” (The Trustees of the University of Pennsylvania, priority 2021, published 2024).
Marks after values point to notes of the source that are not given here.

Assays:
[1] = Dimensions (size, PDI) of DNPs co-assembled from IAJDs and Luc-mRNA by DLS; format: physicochemical
Method: Dynamic Light Scattering (DLS) for the DNPs was performed in buffer with a Malvern Instruments particle sizer (Zetasizer Nano S, Malvern Instruments, UK) equipped with 4 mW He—Ne laser 633 nm and avalanche photodiode positioned at […] to the beam and temperature-controlled cuvette holder. Instrument parameters were determined automatically along with measurement times.
Formulation of DNPs Containing mRNA-Luc: IAJDs were dissolved in ethanol with various initial concentrations (5-160 mg/mL). Nucleoside-modified mRNA encoding firefly luciferase (mRNA-Luc) was dissolved in water with various initial concentrations (1-4 mg/mL). 12.5 μL of mRNA solution was placed into a clean RNAs free eppendorf (1.5 mL) and mixed with 463 μL of citrate buffer (10 mM, pH 3.0)/acetate buffer (10 mM). For encapsulation of mRNA into IAJDs, 25 μL of IAJDs of the ethanol stock solution was rapidly injected into mRNA solution in citrate or acetate buffer followed by vortex for 5 seconds.
(§1) Dynamic Light Scattering (DLS) for the sizes and polydispersities of DNPs was performed on a Malvern Instruments particle sizer (Zetasizer Nano S, Malvern Instruments, UK) equipped with 4 mW He—Ne laser 633 nm and avalanche photodiode positioned at 1750 to the beam and temperature-controlled cuvette holder. Instrument parameters were determined automatically along with measurement times. Sample solution (0.4 mL) was placed in a semi-micro cuvette (1.6 mL, polystyrene, 10×10×45 mm, manufactured by Greiner Bio-One) and the measurements were performed at 23° C.
Formulation of DNPs obtained by co-assembly of IAJDs and Luc-mRNA was performed as follows. IAJDs were dissolved in ethanol with an initial concentration of 80 mg/mL. Nucleoside-modified mRNA encoding firefly luciferase (Luc-mRNA) was dissolved in UltraPure DNase/RNase-free distilled water with an initial concentration of 4.0 mg/mL. 12.5 μL of Luc-mRNA solution was placed into a clean RNAs free eppendorf (1.5 mL) and 463 μL acetate buffer (10 mM, pH 4.0) was added. Then, 25 μL of IAJD in the ethanol stock solution was rapidly injected into the Luc-mRNA solution in acetate buffer followed by vortex for 5 seconds.
as §1, with “dimensions (sizes” for “sizes”, “polydispersities)” for “polydispersities”, “175°” for “1750”, “set up” for “determined”, “(c.a. 0.4” for “(0.4”, “mm,” for “mm, manufactured by”
Formulation of DNPs Co-assembled from IAJDs and Luc-mRNA: nucleoside-modified mRNA encoding firefly luciferase (Luc-mRNA) was dissolved in UltraPure DNase/RNase-free distilled water with an initial concentration of 4.0 mg/mL. IAJD molecules were dissolved in ethanol with an initial concentration of 80 mg/mL. 12.5 μL of Luc-mRNA solution was taken and placed into a clean RNAs free eppendorf (1.5 mL). Then 463 μL of acetate buffer (10 mM, pH 4.0) was added. Afterwards, 25 μL of IAJD in the ethanol stock solution was taken and rapidly injected into the above Luc-mRNA solution in acetate buffer followed by vortex for 5 seconds.

[2] = Stability of DNPs by DLS after storage at 5° C.; format: physicochemical; design: key to Original size distribution type (DLS curve) / Size distribution type (DLS curve): U: DLS curve showed unimodal size distribution; B: DLS curve showed bimodal size distribution; M: DLS curve showed multimodal size distribution; conditions: for pH Sample: DNPs: IAJD 4.0 mg/mL + Luc-mRNA 0.1 mg/mL, injection in acetate buffer pH 4.00; for PDI / Size (d, nm) / Original size distribution type (DLS curve): IAJD 4.0 mg/mL + Luc-mRNA 0.1 mg/mL; for PDI / Size (d, nm): acetate buffer; for Original size distribution type (DLS curve): before storage, acetate buffer pH 4.00
Method: The stability of the DNPs as assayed by DLS. All the samples are prepared in acetate buffer. The stabilities of the constructs were ranked: Excellent (in bold)—the original sizes and distribution remains almost the same after storage; Good—the original relatively big sizes became smaller or broad size distribution became narrower; Not stable—the original relatively big sizes or broad size distribution remained almost the similar level, or the original relatively small sizes became bigger or narrow size distribution became broader.

[3] = Table 16, DNPs from IAJD 4 mg/mL and Luc-mRNA 0.10 mg/mL by injection in acetate buffer (10 mM, pH 4.0)
[4] = Table 17, DNPs used in vivo, IAJD 4 mg/mL, Luc-mRNA 0.10 mg/mL, acetate pH 4.0
[5] = Acetate buffer 10 mM pH 4.0, CIAJD 4 mg/mL, CLuc-mRNA 0.05 mg/mL
[6] = Acetate buffer 10 mM pH 4.0, CIAJD 4 mg/mL, CLuc-mRNA 0.10 mg/mL
[7] = Citrate buffer 10 mM pH 3.0, CIAJD 4 mg/mL, CLuc-mRNA 0.05 mg/mL
[8] = DNP for in vivo, CIAJD 4.0 mg/mL, CLuc-mRNA 0.1 mg/mL, acetate buffer pH 4.0
[9] = storage time 2 days, CIAJD 4.0 mg/mL, CLuc-mRNA 0.1 mg/mL, acetate buffer pH 4.0
[10] = Table 12, DNPs, IAJD 4 mg/mL + Luc-mRNA 0.10 mg/mL, acetate buffer 10 mM pH 4.0
[11] = Table 13, DNPs, IAJD 4 mg/mL + Luc-mRNA 0.10 mg/mL, acetate buffer pH 4.0
[12] = Table 14, DNPs, IAJD 4 mg/mL + Luc-mRNA 0.10 mg/mL, acetate buffer pH 4.0
[13] = Acetate buffer 10 mM pH 5.2, CIAJD 4 mg/mL, CLuc-mRNA 0.10 mg/mL
[14] = DNP for in vivo, CIAJD 4.0 mg/mL, CLuc-mRNA 0.1 mg/mL, acetate buffer pH 5.2

| Molecule | PDI [1, 3] | Size (d, nm) [1, 3] [nm] | PDI [1, 4] | Size (d, nm) [1, 4] [nm] | pH Sample [2] | Original size distribution type (DLS curve) [2] | PDI [1, 10] | Size (d, nm) [1, 10] [nm] | PDI [1, 11] | Size (d, nm) [1, 11] [nm] | PDI [1, 12] | Size (d, nm) [1, 12] [nm] | also measured |
| --- | --- | --- | --- | --- | --- | --- | --- | --- | --- | --- | --- | --- | --- |
| Diheptyl 5,5′-((5-(((4-(4-methylpiperazin-1-yl)butanoyl)oxy)methyl)-1,3-phenylene)bis(oxy)) dipentanoate [IAJD 85] |  |  |  |  |  |  |  |  |  |  |  |  | PDI [1, 5]: 0.352; Size (d, nm) [1, 5]: 99 nm; PDI [1, 6]: 0.254; Size (d, nm) [1, 6]: 115 nm; PDI [1, 7]: 0.361; PDI [1, 8]: 0.254; Size (d, nm) [1, 8]: 115 nm; PDI after storage [2, 9]: 0.271; Size (d, nm) after storage [2, 9]: 114 nm |
| CCCCCCCCCCCCOc1cc(COC(=O)CCCN2CCCCC2)cc(OCCCCCCCCCCCC)c1 [IAJD 65, 3,5-Bis(dodecyloxy)benzyl 4-(piperidin-1-yl)butanoate] |  |  |  |  |  |  | 0.249 | 241 | 0.249 | 241 | 0.249 | 241 |  |
| 3,5-Bis(dodecyloxy)benzyl 3-(4-methylpiperazin-1-yl)propanoate [IAJD 84] |  |  |  |  |  |  |  |  |  |  |  |  | PDI [1, 5]: 0.493; Size (d, nm) [1, 5]: 106 nm; PDI [1, 13]: 0.311; Size (d, nm) [1, 13]: 199 nm; PDI [1, 7]: 0.283; Size (d, nm) [1, 7]: 192 nm; PDI [1, 14]: 0.311; Size (d, nm) [1, 14]: 199 nm |
| CCCCC(CC)COc1ccc(COC(=O)CCCN2CCN(C)CC2)cc1OCC(CC)CCCC (centres unmarked) [IAJD 103, 3,4-Bis((2-ethylhexyl)oxy)benzyl 4-(4-methylpiperazin-1-yl)butanoate] |  |  |  |  |  |  | 0.275 | 88 | 0.275 | 88 | 0.275 | 88 |  |
| CCCCCCCCCCCCOCC(COCCCCCCCCCCCC)(COCCCCCCCCCCCC)COC(=O)CCCN1CCN(C)CC1 [IAJD 82, 3-(Dodecyloxy)-2,2-bis((dodecyloxy)methyl)propyl 4-(4-methylpiperazin-1-yl)butanoate] |  |  |  |  |  |  | 0.144 | 162 | 0.144 | 162 | 0.144 | 162 |  |
| CCCCCCCCCCCCCCOc1cc(CNC(=O)CCCN2CCN(C)CC2)cc(OCCCCCCCCCCCCCC)c1 [IAJD 108, N-(3,5-bis(tetradecyloxy)benzyl)-4-(4-methylpiperazin-1-yl)butanamide] |  |  |  |  |  |  | 0.334 | 214 | 0.334 | 214 | 0.334 | 214 |  |
| CCCCCCCCCCCCOc1ccc(COC(=O)CCCN2CCN(C)CC2)cc1OCCCCCCCCCCCC [IAJD 78, 3,4-Bis(dodecyloxy)benzyl 4-(4-methylpiperazin-1-yl)butanoate] |  |  |  |  |  |  | 1.000 | 629 | 1.000 | 629 | 1.000 | 629 |  |

Second part, led by results:

| PDI [1, 3] | Size (d, nm) [1, 3] [nm] | PDI [1, 4] | Size (d, nm) [1, 4] [nm] | pH Sample [2] | Original size distribution type (DLS curve) [2] | PDI [1, 10] | Size (d, nm) [1, 10] [nm] | PDI [1, 11] | Size (d, nm) [1, 11] [nm] | PDI [1, 12] | Size (d, nm) [1, 12] [nm] | Molecule | also measured |
| --- | --- | --- | --- | --- | --- | --- | --- | --- | --- | --- | --- | --- | --- |
| 0.218 | 91 | 0.218 | 91 | 4.72 | (U) |  |  |  |  |  |  | CCCCCCCCCCCCCCCCCOc1cc(CNC(=O)c2cc(OCCOCCOCCOC(=O)CCCN3CCCCC3)c(OCCCOCOCCOCc3ccccc3)c(OCCOCCOCCOC(=O)CCCN3CCCCC3)c2)cc(OCCCCCCCCCCCCCCCCC)c1 [IAJD 159] | Size distribution type (DLS curve) ([2]; after 11 days at 5° C.): (U); PDI ([2]; after 11 days at 5° C.): 0.220; Size (d, nm) ([2]; after 11 days at 5° C.): 93 nm |
| 0.232 | 99 | 0.232 | 99 | 4.84 | (U) |  |  |  |  |  |  | CCCCCCCCCCCOc1cc(COC(=O)c2cc(OCCOCCOCCCC(=O)CCCN3CCCCC3)c(OCCOCCOCCOCc3ccccc3)c(OCCOCCOCCOC(=O)CCCN3CCCCC3)c2)cc(OCCCCCCCCCCC)c1 [IAJD 111] | Size distribution type (DLS curve) ([2]; after 75 days at 5° C.): (U); PDI ([2]; after 75 days at 5° C.): 0.227; Size (d, nm) ([2]; after 75 days at 5° C.): 96 nm |
| 0.511 | 181 | 0.511 | 181 | 4.48 | (B)^b |  |  |  |  |  |  | CCCCCCCCCCCOc1cc(COC(=O)CCCN2CCN(CCO)CC2)cc(OCCCCCCCC)c1 [IAJD 113, 3-(Octyloxy)-5-(undecyloxy)benzyl 4-(4-(2-hydroxyethyl)piperazin-1-yl)butanoate] | Size distribution type (DLS curve) ([2]; after 70 days at 5° C.): (B); PDI ([2]; after 70 days at 5° C.): 0.365; Size (d, nm) ([2]; after 70 days at 5° C.): 184 nm |
| 0.474 | 212 | 0.474 | 212 | 4.40 | (B) |  |  |  |  |  |  | CCCCCCCCCCCCCCCCOc1cc(COC(=O)CCCN2CCN(CCO)CC2)cc(OCCCCCCCCCCC)c1 [IAJD 120, 3-(Hexadecyloxy)-5-(undecyloxy)benzyl 4-(4-(2-hydroxyethyl)piperazin-1-yl)butanoate] | Size distribution type (DLS curve) ([2]; after 70 days at 5° C.): (B); PDI ([2]; after 70 days at 5° C.): 0.289; Size (d, nm) ([2]; after 70 days at 5° C.): 177 nm |
| 0.236 | 75 | 0.236 | 75 | 4.82 | (U) |  |  |  |  |  |  | CCCCCCCCCCCCCCOc1cc(COC(=O)c2cc(OCCOCCOCCCC(=O)CCCN3CCCCC3)c(OCCOCCOCCOCc3ccccc3)c(OCCOCCOCCOC(=O)CCCN3CCCCC3)c2)cc(OCCCCCCCCCCC)c1 [IAJD 156] | Size distribution type (DLS curve) ([2]; after 19 days at 5° C.): (U); PDI ([2]; after 19 days at 5° C.): 0.242; Size (d, nm) ([2]; after 19 days at 5° C.): 78 nm |
